Results on twelve compounds are retold here after patent US20240239774A1, “SOLUBLE ADENYLYL CYCLASE (SAC) INHIBITORS AND USES THEREOF” (Cornell University, priority 2021, published 2024).

Usually IC50 stands for the concentration that inhibits the measured activity by half.

Molecules are shown by their SMILES.

For series [1] the following is noted: cited from earlier work.
Series [2] has as its system wild type C57B1/6 male mice. The series can be described thus: Imiquimod-induced type 17 skin inflammation, topical treatment. It counts as in vivo, mouse. The conditions noted are these: for Il17a and Il17f expression in the skin (qRT-PCR) / skin inflammation (ear thickness): imiquimod 6 days, then continued imiquimod plus topical twice a day: LRE1 3%, Clobetasol 0.05%; for skin inflammation (ear thickness): Example 1 […]. How it is done:
Wild type C57B1/6 male mice 8-10 week old were purchased from Jackson labs. A 7 mm diameter circle was shaved and treated with Nair on the flank. Baseline ear thickness was measured. For 5 days, mice received daily treatment of 30 mg of 5% imiquimod cream (Taro) to each ear and to the 7 mm area on the flank. Ear thickness was recorded on days 3 and 5 to ensure peak inflammation had occurred. Mice were then randomized into three cohorts: vehicle, LRE1, and Clobetasol. […] Treatment with imiquimod was continued during this period as above. Ear thickness was recorded every day before the first dose of drug. On day 11, all mice were euthanized. A 7 mm punch biopsy was collected from the flank and both ears were removed. Skin was stored in RNAlater (Sigma) for qPCR or 10% formalin for immunohistochemistry.
For tissue, RNA was isolated according to specifications of the RNA easy plus universal mini kit (Qiagen). Tissue was homogenized using stainless steel beads in a bead beater. For frozen cell pellets, RNA was isolated according to specifications of the RNA easy plus mini kit (Qiagen). Samples were homogenized using Qiashredder columns (Qiagen). RNA quality control was performed using a nanodrop spectrophotometer. cDNA was made using the high-capacity rna-to-cdna kit (thermo fischer). The applied biosystems power SYBR green PCR master mix was used for qPCR. 40 cycles with annealing temperatures of 60 degrees celsius and a melting curve were performed using the QuantStudio 6 real-time PCR instrument (thermo fischer). Delta delta CT analysis was performed to determine relative transcription amongst samples normalized to GAPDH.
(In qPCR the cycle at which signal appears reflects the starting amount.)

The subject of series [3] is purified recombinant human sAC protein. It counts as biochemical. The conditions noted are these: 1 mM ATP, 2 mM CaCl2, 4 mM MgCl2, 40 mM NaHCO3. The method, then:
Assays for sAC activity using purified protein were performed in 100 μl reactions containing 4 mM MgCl2, 2 mM CaCl2, 1 mM ATP, 40 mM NaHCO3, 50 mM Tris pH 7.5, and 3 mM DTT. Each reaction contained ˜1,000,000 counts of α-^32P labeled ATP.
All in vitro adenylyl cyclase activity assays were performed via the “two-column” method measuring the conversion of [α-^32P] ATP into [^32P] cAMP, as previously described [References 81, 82]. Briefly, human sACt protein [Reference 21] was incubated in buffer containing 50 mM Tris-HCl, pH 7.5, 4 mM MgCl2, 2 mM CaCl2, 1 mM ATP, 3 mM DTT, 40 mM NaHCO3 in the presence of the indicated concentrations of different sAC inhibitors or vehicle (DMSO).

As for `CCCc1nc(C)c2c(=O)[nH]c(-c3cc(S(=O)(=O)N4CCN(CC)CC4)ccc3OCC)nn12` [vardenafil], the half-lives in series [1] was 4 to 5 h.

Take `C[C@H]1C[C@H]2[C@@H]3CCC4=CC(=O)C=C[C@]4(C)[C@@]3(F)[C@@H](O)C[C@]2(C)[C@@]1(O)C(=O)CCl` [Clobetasol]: in series [2], the “Il17a and Il17f expression in the skin (qRT-PCR)” value is “significant reductions in Il17a and Il17f expression”; the “skin inflammation (ear thickness)” value is listed as “significant reduction in skin inflammation”.

As to `Cn1cc(Cc2ccc(Cl)cc2)c(-c2cc(Cl)nc(N)n2)n1` [Example 13], the IC50 in series [3] was ~1000 nM.

As for `Cn1cc(Cc2ccccc2OCCN2CCOCC2)c(-c2cc(Cl)nc(N)n2)n1` [Example 69, 4-chloro-6-[1-methyl-4-[[2-(2-morpholinoethoxy)phenyl]methyl]pyrazol-3-yl]pyrimidin-2-amine], the reduction in inflammation in series [2] (imiquimod for one week, then imiquimod plus compound, over 4 days, N=5) is reported as 50%.

Take `Cn1cc(Cc2ccccc2Cl)c(-c2cc(Cl)nc(N)n2)n1` [Example 15]: the IC50 in series [3] was 60 nM.

With `CNC(=O)c1ccccc1Cc1cn(C)nc1-c1cc(Cl)nc(N)n1` [Example 52], the IC50 in series [3] was 1200 nM.

For the compound `CCCc1nn(C)c2c(=O)[nH]c(-c3cc(S(=O)(=O)N4CCN(C)CC4)ccc3OCC)nc12` [sildenafil], in series [1], the half-lives is 4 to 5 h.

Consider `Nc1nc(Cl)cc(-c2nn(C(F)F)cc2Cc2ccccc2)n1` [Example 18], for which the IC50 in series [3] stood at 110 nM.

For the compound `Nc1nc(Cl)cc(N(Cc2ccsc2)C2CC2)n1` [LRE1], the “inflammation in the ears measured by ear calipers” value in series [2] (applied at the same time as imiquimod, N=5) is “reduce the inflammation”. Also, in series [2], the “Il17a and Il17f expression in the skin (qRT-PCR)” value was “significant reductions in Il17a and Il17f expression”; the “skin inflammation (ear thickness)” value is given as “significant reduction in skin inflammation”.

On to `COc1ccccc1Cc1cn(C)nc1-c1cc(Cl)nc(N)n1` [Example 28], for which the IC50 in series [3] stood at 58 nM.

Turning to `Cn1cc(Cc2cccc(Cl)c2)c(-c2cc(Cl)nc(N)n2)n1` [Example 11], the IC50 in series [3] was found to be 75 nM.

Turning to `Nc1nc(Cl)cc(-c2nn(C(F)F)cc2Cc2ccccc2OCC(=O)N2CCOCC2)n1` [Example 95], in series [3], the IC50 stood at 15 nM.
